Measurements reported in the supplement of paper PMC4862054.
Values joined by “and” are separate entries in the source; they are usually repeats but may differ in a detail not shown here. Equal values may be shown once.

Tests used:
Conditions in all cases: incubation time: 72 h
HCC1143 = experiment: drug sensitivity score (DSS), CellTiter-Glo (DSS (AUC-based score)); higher = stronger drug effect (viability inhibition or cytotoxicity); extreme values may be limits of the assay
In short: (§1)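 After 72 h of incubation in 384-well plates with compound at 5 concentrations (10-fold steps, 10,000-fold range set per compound), breast cancer cell lines seeded in 20 µl suspension were read first for CellTox Green fluorescence at 485/520 nm. CellTiter-Glo luminescence was measured next, after 10 min at room temperature. Normalisation on each plate used 0.1 % DMSO and a positive kill control, and the drug sensitivity score was computed from the area under the fitted dose-response curve.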

DU-4475 [1] = experiment: as above
In short: as §1

MDA-MB-231 = experiment: normalised viability (% of control), CellTiter-Blue; higher = more viable cells (about 100 = DMSO control)
Procedure: (§2)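 DSRT, CellTiter-Blue viability, 72 h incubation. Signal is normalised to DMSO and benzethonium chloride controls. Value is the normalised response at dose 3.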

SK-BR-3 = experiment: as above
Procedure: as §2

MDA-MB-436 = experiment: as above
Procedure: as §2

CAL-120 = experiment: as above
Procedure: as §2

MDA-MB-468 = experiment: as above
Procedure: as §2

DU-4475 [2] = experiment: as above
Procedure: as §2

BT-474 = experiment: as above
Procedure: as §2

BT-549 = experiment: as above
Procedure: as §2

HDQ-P1 = experiment: as above
Procedure: as §2

CAL-85-1 = experiment: as above
Procedure: as §2

MFM-223 = experiment: as above
Procedure: as §2

HCC1599 = experiment: as above
Procedure: as §2

MDA-MB-453 = experiment: as above
Procedure: as §2

CAL-51 = experiment: as above
Procedure: as §2

HCC1937 = experiment: as above
Procedure: as §2

CAL-148 = experiment: as above
Procedure: as §2

Hs578T = experiment: as above
Procedure: as §2

| Compound | drug sensitivity score (HCC1143) | drug sensitivity score (DU-4475 [1]) | normalised viability (MDA-MB-231; 100 nM) | normalised viability (SK-BR-3; 100 nM) | normalised viability (MDA-MB-436; 100 nM) | normalised viability (CAL-120; 100 nM) | normalised viability (MDA-MB-468; 100 nM) | normalised viability (DU-4475 [2]; 10 nM) | normalised viability (BT-474; 100 nM) | normalised viability (BT-549; 100 nM) | normalised viability (HDQ-P1; 10 nM) | normalised viability (CAL-85-1; 10 nM) | normalised viability (MFM-223; 100 nM) | normalised viability (HCC1599; 100 nM) | normalised viability (MDA-MB-453; 10 nM) | normalised viability (CAL-51; 10 nM) | normalised viability (HCC1937; 100 nM) | normalised viability (CAL-148; 10 nM) | normalised viability (Hs578T; 100 nM) | normalised viability (SK-BR-3; 10 nM) | also measured |
| --- | --- | --- | --- | --- | --- | --- | --- | --- | --- | --- | --- | --- | --- | --- | --- | --- | --- | --- | --- | --- | --- |
| O=S(=O)(c1cccc2cnccc12)N1CCCNCC1 [Fasudil] | 0 | 0.0897 | 96% | 86.2% | 100% | 89.4% | 106% | 107% | 117% | 95.6% | 103% | 97.7% | 93.6% | 100% | 103% | 112% | 91.7% | 93.1% | 97.5% |  |  |
| COc1ccc(-c2cc3c(C)nc(N)nc3n([C@H]3CC[C@H](OCCO)CC3)c2=O)cn1 | 17.2 | 12.4 | 63.2% | 32.9% | 80.6% | 74.9% | 77.3% | 103% | 67.8% | 66.9% | 82% | 95.3% | 68.8% | 73.6% | 86.2% | 93.3% | 65.8% | 98.1% | 60.5% |  |  |
| COc1cc(CCc2cc(NC(=O)c3ccc(N4CC(C)NC(C)C4)cc3)n[nH]2)cc(OC)c1 (stereo unspecified) [AZD4547] | 0 | 0 |  |  |  |  |  |  |  |  |  |  |  |  |  |  |  |  |  | 97.5% | normalised viability (MDA-MB-231; 10 nM): 124%; normalised viability (MDA-MB-436; 10 nM): 102%; normalised viability (CAL-120; 10 nM): 94%; normalised viability (MDA-MB-468; 10 nM): 108%; normalised viability (DU-4475 [2]; 1 nM): 100%; normalised viability (BT-474; 10 nM): 131%; normalised viability (BT-549; 10 nM): 109%; normalised viability (HDQ-P1; 1 nM): 112%; normalised viability (CAL-85-1; 1 nM): 101%; normalised viability (MFM-223; 10 nM): 59.2%; normalised viability (HCC1599; 10 nM): 83.7%; normalised viability (MDA-MB-453; 1 nM): 107%; normalised viability (CAL-51; 1 nM): 103%; normalised viability (HCC1937; 10 nM): 91.8%; normalised viability (CAL-148; 1 nM): 97.5%; normalised viability (Hs578T; 10 nM): 92.7% |
| c1cc(CN2CCCNCCNCCCNCC2)ccc1CN1CCCNCCNCCCNCC1 [Plerixafor] | 0 | 0 |  |  |  |  |  |  |  |  |  |  |  |  |  |  |  |  |  |  | normalised viability (MDA-MB-231; 25 nM): 93.9%; normalised viability (SK-BR-3; 25 nM): 84.3%; normalised viability (MDA-MB-436; 25 nM): 95.7%; normalised viability (CAL-120; 25 nM): 80.1%; normalised viability (MDA-MB-468; 25 nM): 98.5%; normalised viability (DU-4475 [2]; 2.5 nM): 93.1%; normalised viability (BT-474; 25 nM): 108%; normalised viability (BT-549; 25 nM): 117%; normalised viability (HDQ-P1; 2.5 nM): 112%; normalised viability (CAL-85-1; 2.5 nM): 96.9%; normalised viability (MFM-223; 25 nM): 92.6%; normalised viability (HCC1599; 25 nM): 101%; normalised viability (MDA-MB-453; 2.5 nM): 106%; normalised viability (CAL-51; 2.5 nM): 100%; normalised viability (HCC1937; 25 nM): 102%; normalised viability (CAL-148; 2.5 nM): 92.3%; normalised viability (Hs578T; 25 nM): 93.4% |
| Cc1ccc(Nc2nccc(N(C)c3ccc4c(C)n(C)nc4c3)n2)cc1S(N)(=O)=O [Pazopanib] | 0 | 0 | 94.3% | 78.7% | 88.3% | 81.6% | 104% | 103% | 99.7% | 96.9% | 93.8% | 95.6% | 71.7% | 108% | 100% | 104% | 94% | 88.3% | 86.5% |  |  |
| O=C(CCBr)N1CCN(C(=O)CCBr)CC1 [Pipobroman] | 0 | 0 | 94.7% | 108% | 93% | 96% | 98% | 103% | 119% | 86.4% | 99.4% | 110% | 98.8% | 93.4% | 102% | 110% | 87.9% | 100% | 91.4% |  |  |
| CCN(CC)CCNC(=O)c1c(C)[nH]c(/C=C2\C(=O)Nc3ccc(F)cc32)c1C [Sunitinib] | 0 | 0 |  |  |  |  |  |  |  |  |  |  |  |  |  |  |  |  |  | 85.7% and 80.3% | normalised viability (MDA-MB-231; 10 nM): 84.8% and 87.2%; normalised viability (MDA-MB-436; 10 nM): 102% and 107%; normalised viability (CAL-120; 10 nM): 91.8% and 108%; normalised viability (MDA-MB-468; 10 nM): 100% and 107%; normalised viability (DU-4475 [2]; 1 nM): 104% and 92%; normalised viability (BT-474; 10 nM): 102% and 99.1%; normalised viability (BT-549; 10 nM): 96.5% and 73.3%; normalised viability (HDQ-P1; 1 nM): 103% and 99.8%; normalised viability (CAL-85-1; 1 nM): 95.3% and 104%; normalised viability (MFM-223; 10 nM): 93.5% and 87.9%; normalised viability (HCC1599; 10 nM): 125% and 105%; normalised viability (MDA-MB-453; 1 nM): 89.4% and 98.1%; normalised viability (CAL-51; 1 nM): 110% and 90.5%; normalised viability (HCC1937; 10 nM): 98.6% and 91%; normalised viability (CAL-148; 1 nM): 96.4% and 97.8%; normalised viability (Hs578T; 10 nM): 96.2% and 90.4% |
| Cn1cc(CNCC2CCN(c3ncc(C(=O)NO)cn3)CC2)c2ccccc21 |  |  |  |  |  |  |  |  |  |  |  |  |  |  |  |  |  |  |  | 35.8% | normalised viability (MDA-MB-231; 10 nM): 99.5%; normalised viability (MDA-MB-436; 10 nM): 77.9%; normalised viability (CAL-120; 10 nM): 58.3%; normalised viability (MDA-MB-468; 10 nM): 78.3%; normalised viability (DU-4475 [2]; 1 nM): 89%; normalised viability (BT-474; 10 nM): 78.2%; normalised viability (BT-549; 10 nM): 103%; normalised viability (HDQ-P1; 1 nM): 100%; normalised viability (CAL-85-1; 1 nM): 90.7%; normalised viability (MFM-223; 10 nM): 74.7%; normalised viability (HCC1599; 10 nM): 73.7%; normalised viability (MDA-MB-453; 1 nM): 86.3%; normalised viability (CAL-51; 1 nM): 102%; normalised viability (HCC1937; 10 nM): 76.4%; normalised viability (CAL-148; 1 nM): 98.3%; normalised viability (Hs578T; 10 nM): 86.8% |
| O=C(NC[C@H](O)CO)c1ccncc1Nc1ccc(I)cc1F |  |  | 44.8% | 78.1% | 114% | 85.1% | 87.3% | 63.7% | 110% | 101% | 97.9% | 90.6% | 85.4% | 101% | 88.7% | 99.2% | 88.7% | 80.3% | 79.8% |  |  |
| COc1nc(N)nc2c1ncn2[C@@H]1O[C@H](CO)[C@@H](O)[C@@H]1O [Nelarabine] | 0 | 0 | 92.8% and 89.7% |  | 90.6% and 83.6% | 112% and 101% | 104% and 97.9% |  | 87.4% and 96.1% | 88.7% and 74.2% | 82.8% and 82.6% | 94.4% and 97.7% | 103% and 101% | 98.1% and 113% | 97.4% and 102% | 102% and 103% | 93.1% and 85.6% | 104% and 85.5% | 75.9% and 85.7% |  |  |
| Cc1nc(Nc2ncc(C(=O)Nc3c(C)cccc3Cl)s2)cc(N2CCN(CCO)CC2)n1 [Dasatinib] | 6.57 | 0 |  |  |  |  |  |  |  |  |  |  |  |  |  |  |  |  |  | 89.4% and 82.9% | normalised viability (MDA-MB-436; 10 nM): 102% and 88.7%; normalised viability (CAL-120; 10 nM): 93.2% and 80.5%; normalised viability (DU-4475 [2]; 1 nM): 105% and 111%; normalised viability (BT-474; 10 nM): 117% and 108%; normalised viability (BT-549; 10 nM): 91.5% and 93.8%; normalised viability (HDQ-P1; 1 nM): 92.8% and 87.5%; normalised viability (CAL-85-1; 1 nM): 100% and 99.7%; normalised viability (MFM-223; 10 nM): 91.8% and 88%; normalised viability (HCC1599; 10 nM): 105% and 123%; normalised viability (MDA-MB-453; 1 nM): 100%; normalised viability (CAL-51; 1 nM): 100% and 106%; normalised viability (HCC1937; 10 nM): 87.7% and 94.3%; normalised viability (CAL-148; 1 nM): 98.7% and 85.7%; normalised viability (Hs578T; 10 nM): 77.6% and 80.5% |
